Laboratory results published in ChEMBL document CHEMBL4477157, “Iridoid Glucosides and Diterpenoids from Caryopteris glutinosa” (J Nat Prod, 2016).

Experiments:
KGN [1] = test: Induction of estrogen biosynthesis in human KGN cells assessed as upregulation of E2 concentration at 25 uM preincubated for 24 hrs followed by testosterone addition for 24 hrs by magnetic particle based ELISA; format: functional
KGN [2] = test: Upregulation of aromatase expression in human KGN cells at 10 to 50 uM after 24 hrs by Western blot analysis; format: functional
KGN [3] = test: Induction of estrogen biosynthesis in human KGN cells assessed as upregulation of E2 concentration preincubated for 24 hrs followed by testosterone addition for 24 hrs by magnetic particle based ELISA; format: functional, cell-based

COc1cc(/C=C/C(=O)OC[C@H]2O[C@@H](O[C@@H]3OC=C[C@@]4(O)[C@H](O)C[C@](C)(OC(C)=O)[C@@H]34)[C@H](O)[C@@H](O)[C@@H]2O)cc(OC)c1O
fold change (FC) (KGN [1]): 2
fold change (FC) (KGN [2]): 1.5
Activity (KGN [3]): Dose-dependent effect
EC50 (KGN [3]): 11.1 µM

CC(=O)CC[C@@]1(C)[C@H](C)CC[C@@]2(C)C(CO)=CCC[C@H]12
fold change (FC) (KGN [1]): 2
fold change (FC) (KGN [2]): 1.5
Activity (KGN [3]): Dose-dependent effect
EC50 (KGN [3]): 8 µM
